Measurements: US5364772A, “DNA molecule encoding the β3 -adrenergic receptor” (Wayne State University, priority 1992, dated 1994)
Each block holds one molecule with its values, some of them ahead of it.

Assays:
[1] = tested on: adipose tissue-specific genes; settings: Kletzien et al., 1992; cited from earlier work
[2] = tested on: truncated (402 amino acids) human β3-adrenergic receptor; settings: cited from earlier work; for inhibition at the truncated receptor: Emorine et al., 1989
[3] = molecular target: T1, full length (408 amino acids) human β3-adrenergic receptor (Homo sapiens, UniProt P13945); test: Functional activity (adenylyl cyclase) at full-length human β3 receptor expressed in CHO cells; assay type: biochemical
T1 construct: CHO cells expressing the full length human β3 receptor are harvested; expressed in transfected cells
T1 sequence (P13945 whole entry): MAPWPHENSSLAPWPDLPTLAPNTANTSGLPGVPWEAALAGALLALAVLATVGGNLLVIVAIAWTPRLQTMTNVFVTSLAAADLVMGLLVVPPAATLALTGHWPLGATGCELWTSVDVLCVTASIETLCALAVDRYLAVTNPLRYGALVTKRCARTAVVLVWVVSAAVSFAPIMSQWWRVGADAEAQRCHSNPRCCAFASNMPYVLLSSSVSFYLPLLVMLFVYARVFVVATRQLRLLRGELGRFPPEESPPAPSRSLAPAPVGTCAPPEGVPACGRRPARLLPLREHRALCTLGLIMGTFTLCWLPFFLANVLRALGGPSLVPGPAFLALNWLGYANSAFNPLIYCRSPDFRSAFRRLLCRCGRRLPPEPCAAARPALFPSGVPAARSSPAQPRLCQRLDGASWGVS
Method: Culture medium was removed and cells were washed in phosphate-buffered saline and then harvested in 25 mM HEPES (pH 8.0) buffer containing 2 mM MgCl2 and 1 mM EDTA. Cell were homogenized and centrifuged at 48,000×g for 15 min. to obtain crude membranes. Membrane pellets were resuspended and used directly or frozen at -80° until used. […] Membranes (5-15 μg of protein) were preincubated at 4°, in a volume of 40 μl, with the specified drugs for 15 min. Adenylyl cyclase reactions were initiated by addition of substrate mixture and were terminated after 30 min at 30°. […] Concentration-response data were analyzed by nonlinear regression analysis with a one-site mass action equation for transfected CHO cells (Enzfitter, Elsevier Biosoft).
Chinese hamster ovary (CHO) cells are transfected with constructs based upon the expression vector pRc/CMV. […] Transfection of CHO cells with DNA constructs is accomplished by the CaPO4 -DNA precipitation method as described in Maniatis et al., ibid. To obtain cells that stably express these DNA constructs, transfected cells are selected based upon their resistance to G418, which is conferred by the neomycin-resistance gene contained in pRc/CMV. Cells that survive selective conditions (e.g. 800 μg/ml G418) are then cloned by limiting dilution.
CHO cells expressing the full length human β3 receptor are harvested and membranes prepared as described by Granneman et al., ibid. Adenylyl cyclase activity is then determined in response to various agents known or thought to interact with the β3 receptor, using the method of Salomon, ibid. Agonists are identified by the ability to increase cyclic AMP generation above basal levels. Antagonists are identified by their ability to decrease adenylyl cyclase activity that is stimulated by 100 nM isoproterenol.

Structure (SMILES): CC1(COc2ccc(CC3SC(=O)NC3=O)cc2)CCCCC1 (stereo not shown) [Cigilazone]
effect on expression of adipose tissue-specific genes [1]: augment the expression of adipose tissue-specific genes

Structure (SMILES): CC(Cc1ccc(OCC(=O)O)cc1)NCC(O)c1cccc(Cl)c1 (stereo not shown) [BRL 37344]
agonist character [2]: partial agonists
agonist character ([3]; full length receptor): partial agonists
activation potency ([3]; full-length receptor): relatively low potency

Structure (SMILES): CC(C)NCC(O)COc1cccc2ccccc12 (stereo not shown) [Propranolol]
inhibition at the truncated receptor [2]: essentially inactive

potency of inhibition of the full length receptor (antagonists) ([3]; full length receptor): submicromolar potencies
Structure (SMILES): C=CCc1ccccc1OCC(O)CNC(C)C (stereo not shown) [alprenolol]
inhibition at the truncated receptor [2]: essentially inactive
